Data as given in patent US7186751B2, “Injectable composition of paclitaxel” (priority 2001, dated 2007).

Experiments:
rat [1] = details: ratio of LD50 in rat
Excerpt: The common stabilizer has danger in the safety in case of excessive use.

rat [2] = details: cited from earlier work

Question: For `CC(=O)N[C@@H](CS)C(=O)O` [N-acetyl cysteine], which “Lower toxicity than citric acid” value (rat [1]) is on record?
Answer: 90 times

Question: What about the LD50 (rat [2]) of the same compound?
Answer: 3600 mg/kg
